In patent US20220235043A1, “SUBSTITUTED SULFONAMIDE PYRROLOPYRIDINES AS JAK INHIBITORS” (ACLARIS THERAPEUTICS, INC., priority 2019, published 2022):

Target: T1, JAK3 (a.a. 781-1124) (Homo sapiens, UniProt P52333)
T1 construct: JAK3 (a.a. 781-1124, ThermoFisher); purchased ThermoFisher
Test: JAK3 enzyme activity assay (SRCtide phosphorylation, Caliper)
Type: biochemical
Details: 1 uM ATP; read-out: JAK3 Inhibition IC50
Outline: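 Kinase reactions used 2.5 nM JAK3 (aa 781-1124), 1 μM FAM-SRCtide and 1 uM ATP in HEPES pH 7.5, MgCl2, BSA, Tween-20, 2% DMSO. Incubation was 40 min at room temperature, stopped with EDTA. Phospho/unphospho peptide separated by Caliper mobility shift; IC50 from 11-point 3-fold 4-parameter fits.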

T1 sequence (P52333 781-1124): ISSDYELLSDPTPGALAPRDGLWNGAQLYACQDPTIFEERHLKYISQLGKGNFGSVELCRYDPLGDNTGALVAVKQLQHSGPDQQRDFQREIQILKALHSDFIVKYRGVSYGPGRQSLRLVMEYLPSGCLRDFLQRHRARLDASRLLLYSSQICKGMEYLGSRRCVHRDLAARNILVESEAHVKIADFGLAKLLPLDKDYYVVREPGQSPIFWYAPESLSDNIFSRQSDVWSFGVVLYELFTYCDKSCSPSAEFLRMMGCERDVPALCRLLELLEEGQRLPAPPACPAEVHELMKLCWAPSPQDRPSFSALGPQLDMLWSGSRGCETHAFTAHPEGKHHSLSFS

## Cc1nnc(-c2cnc3[nH]ccc3c2N[C@H]2C[C@@H](NS(=O)(=O)c3cccc(C#N)c3)C2)s1 [Example 75, 3-cyano-N-((1s,3s)-3-((5-(5-methyl-1,3,4-thiadiazol-2-yl)-1H-pyrrolo[2,3-b]pyridin-4-yl)amino)cyclobutyl)benzenesulfonamide]
  IC50: 10 to 100 nM
